The values below come from patent US9445596B2, “Small molecule compounds for the control of nematodes” (California Institute of Technology, priority 2011, dated 2016).

The test system of one experiment is ASI sensory neurons. Conditions: McGrath et al., Nature 2011; cited from earlier work.
For experiment [1], the system named is C. elegans hermaphrodites and males. As to the kind of experiment: Spot attraction assay. The class given is in vivo. The procedure:
The spot attraction assays were conducted according to a previously reported method (Pungaliya et al., PNAS 106:7708-13 (2009); Srinivasan et al., Nature 454:1115-18 (2008), which are hereby incorporated by reference in their entirety). For both C. elegans hermaphrodites and males, 50-60 worms were harvested daily at the fourth larval stage (L4) and stored segregatedly by sex at 20° C. overnight, to be used as young adults the following day. For the competition experiments, two conditions were used: 120 nM ascr#3 and 10 nM icas#3 (Condition 1), or 12 μM ascr#3 and 1 μM icas#3 (Condition 2) in water containing 10% ethanol. Aliquots were stored at −20° C. in 20 μL tubes. 10% ethanol in water was used as control.
Attraction assays with hbas#3 were conducted as previously reported (Srinivasan et al., Nature 454:1115-18 (2008); Pungaliya et al., Proc. Natl. Acad. Sci. U.S.A. 106:7708-13 (2009), which are hereby incorporated by reference in their entirety). For the attraction assays, 50-60 hermaphrodite worms were harvested daily at the early fourth larval stage (L4) and stored at 20° C. overnight to be used as young adults the following day. Hbas#3 was dissolved in water containing 10% ethanol. Aliquots were stored at −20° C. in 20 μL tubes. 10% ethanol in water was used as control.

The subject of experiment [2] is C. elegans hermaphrodites. As to the kind of experiment: Quadrant chemotaxis assay. The class given is in vivo. Particulars: for chemotaxis of hermaphrodites: 1 pM, all tested strains. As to the method: Chemotaxis to both non-indole and indole ascarosides was assessed on 10 cm four-quadrant petri plates (Wicks et al., Dev. Biol. 221:295-307 (2000), which is hereby incorporated by reference in its entirety). Each quadrant was separated from adjacent ones by plastic spacers (FIG. 1B). Pairs of opposite quadrants were filled with nematode growth medium (NGM) agar containing either indole ascarosides or non-indole ascarosides at different concentrations. Animals were washed gently in a S-basal buffer, placed in the center of a four-quadrant plate with ascarosides in alternating quadrants, and scored after 15 minutes and 30 minutes. A chemotaxis index was calculated as: (the number of animals on ascaroside quadrants minus the number of animals on buffer quadrants)/(total number of animals).
Chemotaxis to hbas#3 was assessed on 10 cm four-quadrant petri plates (Wicks et al., Dev. Biol. 221:295-307 (2000), which is hereby incorporated by reference in its entirety). Each quadrant was separated from adjacent ones by plastic spacers. Pairs of opposite quadrants were filled with nematode growth medium (NGM) agar containing different concentrations of hbas#3. Animals were washed gently in an S-basal buffer and placed in the center of a four-quadrant plate with ascarosides in alternating quadrants, and scored after 15 minutes and 30 minutes. A chemotaxis index was calculated as: (the number of animals on ascaroside quadrants minus the number of animals on buffer quadrants)/(total number of animals).

For a further experiment, the system named is C. elegans. As to the kind of experiment: Aggregation assay. The experiment is classed as in vivo. As to the method:
Aggregation behavior of worms was measured using assays reported in de Bono & Bargmann, Cell 94:679-89 (1998), which is hereby incorporated by reference in its entirety. Aggregation assays were conducted on standard NGM plates. Plates containing indole ascarosides were made by adding the indole ascaroside stock solution to the NGM media before they were poured onto the plates. These plates were dried at room temperature for 2 to 3 days. Control plates were treated similarly, except that ethanol solutions instead of icas solutions were added to the plates, corresponding to the amount of ethanol introduced via the icas solutions. Final ethanol concentrations of the plates were below 0.1% for all conditions. After drying, both control plates and plates containing indole ascarosides were seeded with 150 μl of an overnight culture of E. coli OP50 using a micropipette, and were allowed to dry for 2 days at room temperature. For “low worm density” experiments, 20 worms were placed onto the lawn and left at 20° C. for 3 hours. For “high worm density” experiments, approximately 120 worms were placed onto the bacterial lawn and left at 20° C. for 3 hours. Aggregation behavior was quantified as the number of animals that were in touch with two or more animals at greater than 50% of their body length.

For experiment [3], the system named is C. elegans hermaphrodites. As to the kind of experiment: Measurement of locomotory parameters (automated worm tracking). The class given is in vivo. The procedure: Reversal frequency and velocity were measured using an automated worm-tracking system (Pungaliya et al., PNAS 106:7708-13 (2009); Srinivasan et al., Nature 454:1115-18 (2008), which are hereby incorporated by reference in their entirety).

Another experiment deals with ASK neurons. As to the kind of experiment: Calcium imaging (G-CaMP), ASK neurons. The class given is in vivo, C. elegans. Particulars: 1 pM to 1 μM. The source says:
(§1) Transgenic lines that express the genetically encoded Ca^2+ sensor in ASK (kyEx2866) and AIA (kyEx2916) (Macosko et al., Nature 458:1171-75 (2009), which is hereby incorporated by reference in its entirety) were used for calcium imaging. Young adults or adult worms were inserted into an “Olfactory chip” microfluidic device (Chronis et al., Nat. Methods 4:727-31 (2007), which is hereby incorporated by reference in its entirety). Dilutions of icas#3 were done with S-basal buffer (with no cholesterol). As stock solutions of icas#3 contained small amounts of ethanol, equivalent amounts of ethanol were added to the S-basal control flow.
(§2) Imaging was conducted using an inverted Zeiss microscope equipped with an Andor camera. Exposure time for image acquisition was 300 milliseconds. Before imaging the ASK neuron, the worm was exposed to blue light for 3 minutes as ASK responds to the blue light itself. […] Movies were analyzed using custom-made Matlab scripts. The first peak of fluorescence immediately after exposure to buffer or icas#3 was chosen for calculating the average change in fluorescence upon exposure to either buffer or icas#3. The value for this maximum was then subtracted from the mean fluorescence during the 5 seconds before the delivery of icas#3/buffer (corresponding to the region between 5 to 10 seconds in FIG. 2D).

The next experiment concerns AIA interneurons. Briefly: Calcium imaging (G-CaMP), AIA interneurons. The experiment is classed as in vivo, C. elegans.
Description: as §1, §2

[4] abbreviates: social wild-type strains (RC301 and CB4856) and npr-1(ad609) hermaphrodites.
The mark [5] stands for this setting: ASK-ablated hermaphrodites on icas#3 plates.

Molecules are shown by their SMILES. “Also recorded” adds a separate entry of the source. A value given as a limit tells only on which side of the number the result lay.

Regarding `C[C@@H]1O[C@@H](OCCC(=O)O)[C@H](O)C[C@H]1O` [ascr#5], the “calcium transients in the ASI sensory neurons” value with ASI sensory neurons is “does not elicit calcium transients”.

On to `C[C@H](CCCC/C=C/C(=O)O)O[C@@H]1O[C@@H](C)[C@H](OC(=O)c2c[nH]c3ccccc23)C[C@H]1O` [icas#3], for which the “attraction in the spot attraction assay” value in experiment [1] (1 pmol, N2 hermaphrodites and him-5 males) is “attractive to both C. elegans sexes”; in experiment [1] (high concentrations, males and hermaphrodites), “attracted both males and hermaphrodites”. Moreover, the “attraction after ablation of both ASI and ASK neurons” value in experiment [1] (ASI- and ASK-ablated hermaphrodites) is recorded as “did not result in a more significant loss of attraction compared to ASK ablation alone”. In addition, in experiment [1] (ASI-ablated hermaphrodites), the “attraction after ablation of the ASI neurons” value is “no significant effect”. Moreover, the “attraction of AIA-deficient worms” value in experiment [1] (MEC-4 expressed in AIA interneuron) is “did not show any attraction”. Moreover, the “attraction of daf-22 hermaphrodites” value in experiment [1] (daf-22 hermaphrodites) was “attracted; also recorded: as strongly as N2 worms”. Besides, the “attraction after ablation of ASK sensory neurons” value in experiment [1] (hermaphrodites lacking ASK neurons) is reported as “near complete loss of attraction”. Also, in experiment [1] (low concentrations, N2 hermaphrodites), the attraction of hermaphrodites entry is listed as “strongly attractive to hermaphrodites”. Besides, in experiment [1] (low concentrations, males), the attraction of males result is on record as “no longer attracted”. In addition, the “attraction of social hermaphrodites” value in experiment [1] (setting [4]) is listed as “attracted; also recorded: strongly attracted”; in experiment [2] (setting [4]), “strongly attracted”. Also, the “attraction after ablation of the RMG interneuron” value in experiment [1] (wild-type (N2) and ncs-1::gfp hermaphrodites, RMG ablated) is “does not affect attraction; also recorded: did not affect icas#3 response”. Also, the chemotaxis of hermaphrodites entry in experiment [2] (after 15 minutes) and in experiment [2] (after 30 minutes) was “attracted” each time. For the same compound, the “lowest concentration resulting in strong attraction of hermaphrodites (as low as)” value in experiment [2] (both in the presence and absence of food) was 1 pM. The “response of daf-22 hermaphrodites” value in experiment [2] (daf-22 hermaphrodites) is given as “as strongly as N2 worms”. Moreover, the “increase in aggregation of N2 hermaphrodites” value in the experiment on C. elegans (high worm density (120 worms per 5 cm plate)) is on record as at most 3 fold; in the experiment on C. elegans (low worm density, 1 pM) it was at most 4 fold. Besides, the average clump size in the experiment with C. elegans (icas#3-mediated aggregation) is 3-5 worms. The “concentrations at which active as hermaphrodite attractants and aggregation signals” value with C. elegans (in vivo) is listed as “femtomolar to picomolar”. Further, the “concentrations that induce maximal aggregation” value in the experiment on C. elegans (in vivo) lay within 1 to 10 pM. Also, the “lowest concentration with very strong increase in aggregation (as low as)” value in the experiment on C. elegans (low worm density (20 worms per 5 cm plate), solitary and social hermaphrodites) stood at 10 fM. Also, in the experiment with C. elegans (low worm density, 1 pM and 10 pM), the “aggregation of daf-22 hermaphrodites compared with N2” value was “less aggregation than N2 worms at 1 pM icas#3 but not at 10 pM icas#3”. Further, the “aggregation of hermaphrodites lacking the ASK neurons” value in the experiment on C. elegans (low worm density, any of the tested concentrations) was “do not aggregate; also recorded: did not aggregate”. Further, the “aggregation of npr-1(ad609) hermaphrodites” value in the experiment with C. elegans (low worm density, over the entire tested concentration range, without a drop off at higher concentrations) is “increased aggregation”. Moreover, in the experiment on C. elegans (low worm density, social strain CB4856, 1 nM), the “aggregation at 1 nM” value was “not significantly different from the control”. In addition, in the experiment with C. elegans (low worm density, social strain CB4856, bell-shaped response curve), the “concentration of maximal aggregation” value was found to be 1 pM. The “aggregation of him-5 males” value in the experiment on C. elegans (plates containing 100 fM or 100 pM) is “significantly increased”. Also, in experiment [3] (1-10 pM), the worm velocity entry is reported as “not significantly reduced”. Moreover, the “forward velocity of ASK-ablated hermaphrodites” value in experiment [3] (setting [5]) is “do not display reduced forward velocity”. The “reversal frequency of ASK-ablated hermaphrodites” value in experiment [3] (setting [5]) is on record as “does not increase; also recorded: neither increased reversal frequency”. In experiment [3] (aggregation-inducing concentrations, N2 hermaphrodites), the mean stopped duration result was “strongly increase mean stopped duration”. Also, the “Ca^2+ transients in ASK neurons” value in the experiment with ASK neurons was “no detection of Ca^2+ transients”. For the same compound, the “G-CaMP fluorescence signals in AIA interneurons” value in the experiment with AIA interneurons (1 μM) is “induces G-CaMP fluorescence signals”. Moreover, in the experiment with AIA interneurons (in vivo), the “G-CaMP fluorescence in the AIA neurons” value is reported as “significantly increased G-CaMP fluorescence”.
